pIC50: −log10 of the molar value.
Tests used:
Type in all cases: cell-based
human TLR8 = target: T1, human TLR8 (Homo sapiens, UniProt Q9NR97); assay: TLR8 inhibition reporter assay (HEK-Blue cells, SEAP reporter, R848 stimulation); conditions: HEK-Blue cells overexpressing human TLR8, SEAP reporter, R848 15.9 μM
T1 construct: host or cells: HEK-Blue cells
T1 sequence (Q9NR97 27-1041): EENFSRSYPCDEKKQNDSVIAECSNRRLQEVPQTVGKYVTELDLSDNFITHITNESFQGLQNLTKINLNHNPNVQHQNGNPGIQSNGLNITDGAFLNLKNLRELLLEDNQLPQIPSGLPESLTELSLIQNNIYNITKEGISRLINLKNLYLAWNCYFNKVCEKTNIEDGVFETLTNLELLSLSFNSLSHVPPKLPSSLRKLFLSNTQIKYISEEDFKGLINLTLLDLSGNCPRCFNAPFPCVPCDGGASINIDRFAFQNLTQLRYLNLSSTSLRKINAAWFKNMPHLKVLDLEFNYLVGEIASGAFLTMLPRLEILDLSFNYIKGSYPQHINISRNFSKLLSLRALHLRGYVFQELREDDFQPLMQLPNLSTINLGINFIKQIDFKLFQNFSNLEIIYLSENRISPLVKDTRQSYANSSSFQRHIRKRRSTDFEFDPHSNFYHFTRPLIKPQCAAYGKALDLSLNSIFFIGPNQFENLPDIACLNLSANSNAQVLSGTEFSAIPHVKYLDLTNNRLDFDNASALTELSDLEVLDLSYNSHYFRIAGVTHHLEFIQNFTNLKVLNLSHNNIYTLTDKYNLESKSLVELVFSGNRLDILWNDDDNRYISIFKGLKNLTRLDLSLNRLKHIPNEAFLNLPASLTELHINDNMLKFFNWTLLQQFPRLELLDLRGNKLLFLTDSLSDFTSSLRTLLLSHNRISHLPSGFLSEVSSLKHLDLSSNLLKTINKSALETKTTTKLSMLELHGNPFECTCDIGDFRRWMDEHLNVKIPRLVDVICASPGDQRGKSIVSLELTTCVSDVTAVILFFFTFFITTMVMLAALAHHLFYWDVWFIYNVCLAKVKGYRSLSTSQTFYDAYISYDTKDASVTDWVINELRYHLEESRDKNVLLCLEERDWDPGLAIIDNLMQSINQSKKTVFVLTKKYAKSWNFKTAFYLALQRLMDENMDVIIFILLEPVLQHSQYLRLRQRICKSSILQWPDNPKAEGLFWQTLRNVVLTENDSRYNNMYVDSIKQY
Method in brief: (§1)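 Ligand levels: TLR7 gardiquimod 7.5 μM, TLR8 R848 15.9 μM, TLR9 ODN2006 5 nM, added after 30 min room-temperature compound pre-incubation at 0.05 nM-50 μM. Reporter SEAP read with HEK-Blue Detection reagent after 22 h, 37° C. Inhibition expressed as % reduction relative to agonist-plus-DMSO and known-inhibitor controls.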

human TLR9 = target: T2, human TLR9 (Homo sapiens, UniProt Q9NR96); assay: TLR9 inhibition reporter assay (HEK-Blue cells, SEAP reporter, ODN2006 stimulation); conditions: HEK-Blue cells overexpressing human TLR9, SEAP reporter, ODN2006 5 nM
T2 construct: host or cells: HEK-Blue cells
T2 sequence (Q9NR96 26-1032): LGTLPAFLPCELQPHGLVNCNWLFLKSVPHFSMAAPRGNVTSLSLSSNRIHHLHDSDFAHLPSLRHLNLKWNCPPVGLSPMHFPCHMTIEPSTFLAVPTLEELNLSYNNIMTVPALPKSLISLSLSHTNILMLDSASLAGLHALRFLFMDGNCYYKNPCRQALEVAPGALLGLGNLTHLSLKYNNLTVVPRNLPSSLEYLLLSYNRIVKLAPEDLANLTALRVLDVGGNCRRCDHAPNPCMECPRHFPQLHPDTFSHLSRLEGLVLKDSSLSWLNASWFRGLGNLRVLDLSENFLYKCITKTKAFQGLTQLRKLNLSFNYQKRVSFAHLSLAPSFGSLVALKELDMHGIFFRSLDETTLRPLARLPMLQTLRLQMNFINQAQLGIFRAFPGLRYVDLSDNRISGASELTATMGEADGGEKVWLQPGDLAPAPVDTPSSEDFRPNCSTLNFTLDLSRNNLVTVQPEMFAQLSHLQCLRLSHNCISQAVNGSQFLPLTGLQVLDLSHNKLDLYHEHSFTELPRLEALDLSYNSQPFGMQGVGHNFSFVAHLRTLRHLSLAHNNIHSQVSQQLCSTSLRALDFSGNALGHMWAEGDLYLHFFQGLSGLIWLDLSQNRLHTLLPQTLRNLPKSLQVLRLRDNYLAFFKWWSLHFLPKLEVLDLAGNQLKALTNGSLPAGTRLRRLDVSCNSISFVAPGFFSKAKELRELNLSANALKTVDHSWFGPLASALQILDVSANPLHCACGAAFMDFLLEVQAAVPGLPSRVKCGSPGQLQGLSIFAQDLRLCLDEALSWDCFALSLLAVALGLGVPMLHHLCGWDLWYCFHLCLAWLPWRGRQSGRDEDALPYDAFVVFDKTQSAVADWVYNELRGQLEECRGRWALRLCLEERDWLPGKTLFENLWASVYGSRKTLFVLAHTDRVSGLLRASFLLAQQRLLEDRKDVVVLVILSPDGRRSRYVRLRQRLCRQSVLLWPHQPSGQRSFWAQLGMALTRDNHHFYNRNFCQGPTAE
Method in brief: as §1

human TLR7 = target: T3, human TLR7 (Homo sapiens, UniProt Q9NYK1); assay: TLR7 inhibition reporter assay (HEK-Blue cells, SEAP reporter, gardiquimod stimulation); conditions: HEK-Blue cells overexpressing human TLR7, SEAP reporter, gardiquimod 7.5 μM
T3 construct: host or cells: HEK-Blue cells
T3 sequence (Q9NYK1 27-1049): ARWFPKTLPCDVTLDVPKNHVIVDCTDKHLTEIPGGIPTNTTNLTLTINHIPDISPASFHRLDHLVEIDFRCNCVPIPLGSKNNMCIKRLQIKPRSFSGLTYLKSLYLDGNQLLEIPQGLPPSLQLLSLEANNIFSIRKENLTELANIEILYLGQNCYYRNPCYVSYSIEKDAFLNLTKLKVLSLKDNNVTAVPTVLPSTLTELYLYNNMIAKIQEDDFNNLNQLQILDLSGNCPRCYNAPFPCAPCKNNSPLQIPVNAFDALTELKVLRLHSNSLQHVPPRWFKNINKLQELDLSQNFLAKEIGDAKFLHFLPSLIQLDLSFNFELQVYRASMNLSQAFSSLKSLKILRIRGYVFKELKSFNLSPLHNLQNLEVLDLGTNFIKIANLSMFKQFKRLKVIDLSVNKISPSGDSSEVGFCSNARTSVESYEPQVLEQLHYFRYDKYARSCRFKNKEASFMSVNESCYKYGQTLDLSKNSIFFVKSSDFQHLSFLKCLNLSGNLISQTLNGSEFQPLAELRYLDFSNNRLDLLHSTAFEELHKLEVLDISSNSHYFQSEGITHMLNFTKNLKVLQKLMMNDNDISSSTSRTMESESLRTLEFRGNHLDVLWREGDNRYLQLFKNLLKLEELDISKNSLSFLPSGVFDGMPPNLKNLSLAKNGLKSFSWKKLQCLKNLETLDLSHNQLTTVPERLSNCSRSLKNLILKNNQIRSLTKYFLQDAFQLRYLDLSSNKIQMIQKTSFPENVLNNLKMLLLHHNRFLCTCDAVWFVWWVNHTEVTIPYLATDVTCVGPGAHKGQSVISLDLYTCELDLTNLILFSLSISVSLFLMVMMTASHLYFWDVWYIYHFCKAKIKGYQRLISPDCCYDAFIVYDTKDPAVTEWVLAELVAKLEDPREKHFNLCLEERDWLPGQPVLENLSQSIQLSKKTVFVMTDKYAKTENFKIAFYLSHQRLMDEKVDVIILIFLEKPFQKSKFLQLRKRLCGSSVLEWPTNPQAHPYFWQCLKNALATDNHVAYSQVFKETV
Method in brief: as §1

pIC50 (human TLR8)	pIC50 (human TLR9)	pIC50 (human TLR7)	Compound
7.43	5.15	8.40	Cc1c(-c2[nH]c3ccc(C4CC5CN(C(=O)CN(C)C)CC5C4)cc3c2C(C)C)cn2cnnc2c1C (stereo not drawn) [Example 521]
7.07	4.90	8.05	Cc1c(-c2[nH]c3ccc(C4CC5CN(C6COC6)CC5C4)cc3c2C(C)C)cn2cnnc2c1C (stereo not drawn) [Example 522]
8.29	5.57	9.32	Cc1c(-c2[nH]c3ccc(C4CCC(NC5COC5)CC4)cc3c2C(C)C)cn2cnnc2c1C (stereo not drawn) [Example 523]
7.68	4.96	7.92	Cc1c(-c2[nH]c3ccc(C4CCC(NC5COC5)CC4)cc3c2C(C)C)cn2cnnc2c1C (stereo not drawn) [Example 524]
7.30	5.36	8.15	CNC1CCC(c2ccc3[nH]c(-c4cn5cnnc5c(C)c4C)c(C(C)C)c3c2)CC1 (stereo not drawn) [Example 525]
7.47	5.16	8.22	Cc1c(-c2[nH]c3ccc(C4CCC(N(C)C5COC5)CC4)cc3c2C(C)C)cn2cnnc2c1C (stereo not drawn) [Example 526]
8.35	6.12	9.28	Cc1c(-c2[nH]c3ccc(C4CCC(N(C)C)CC4)cc3c2C(C)C)cn2cnnc2c1C (stereo not drawn) [Example 527]
7.80	5.25	8.70	Cc1c(-c2[nH]c3ccc(C4CCC(N(C)C5COC5)CC4)cc3c2C(C)C)cn2cnnc2c1C (stereo not drawn) [Example 528]
7.41	5.04	7.92	Cc1c(-c2[nH]c3ccc(C4CCC(N(C)C)CC4)cc3c2C(C)C)cn2cnnc2c1C (stereo not drawn) [Example 529]
7.92	6.16	8.70	CNC1CCC(c2ccc3[nH]c(-c4cn5cnnc5c(C)c4C)c(C(C)C)c3c2)CC1 (stereo not drawn) [Example 530]
6.86	4.99	7.24	Cc1c(-c2[nH]c3ccc(C4CNC4)cc3c2C(C)C)cn2cnnc2c1C [Example 531]
7.70	4.77	7.89	Cc1c(-c2[nH]c3ccc(C4CN(CCS(C)(=O)=O)C4)cc3c2C(C)C)cn2cnnc2c1C [Example 532]
7.38	5.66	8.10	Cc1c(-c2[nH]c3ccc(C4CN(C)C4)cc3c2C(C)C)cn2cnnc2c1C [Example 533]
7.55	5.14	8.05	Cc1c(-c2[nH]c3ccc(C4CN(C(C)C)C4)cc3c2C(C)C)cn2cnnc2c1C [Example 534]
7.68	4.96	7.59	Cc1c(-c2[nH]c3ccc(C4CN(CC5(C)COC5)C4)cc3c2C(C)C)cn2cnnc2c1C [Example 536]
7.40	4.56	7.29	Cc1c(-c2[nH]c3ccc(C4CN(Cc5ncn(C)n5)C4)cc3c2C(C)C)cn2cnnc2c1C [Example 537]
7.35	4.78	7.48	Cc1c(-c2[nH]c3ccc(C4CN(C5CCOC5)C4)cc3c2C(C)C)cn2cnnc2c1C (stereo not drawn) [Example 538]
6.88	5.72	7.19	Cc1c(-c2[nH]c3ccc(C4CN(CC(=O)N(C)C)C4)cc3c2C(C)C)cn2cnnc2c1C [Example 539]
7.44	4.73	7.72	Cc1c(-c2[nH]c3ccc(C4CN(C5COC5)C4)cc3c2C(C)C)cn2cnnc2c1C [Example 540]
9.10	5.24	8.70	Cc1c(-c2[nH]c3ccc(C4CC(N)C4)cc3c2C(C)C)cn2ncnc2c1C (stereo not drawn) [Example 541]
8.92	5.29	8.52	Cc1c(-c2[nH]c3ccc(C4CC(N)C4)cc3c2C(C)C)cn2ncnc2c1C (stereo not drawn) [Example 542]
8.29	5.02	8.40	Cc1c(-c2[nH]c3ccc(C4CN(CCS(C)(=O)=O)C4)cc3c2C(C)C)cn2ncnc2c1C [Example 543]
7.92	4.68	8.30	Cc1c(-c2[nH]c3ccc(C4CN(C5COC5)C4)cc3c2C(C)C)cn2ncnc2c1C [Example 544]
8.42	5.69	8.70	Cc1c(-c2[nH]c3ccc(C4CNC4)cc3c2C(C)C)cn2ncnc2c1C [Example 545]
8.24	5.41	8.40	CCCN1CC(c2ccc3[nH]c(-c4cn5cnnc5c(C)c4C)c(C(C)C)c3c2)C1 [Example 546]
9.17	5.34	9.43	Cc1c(-c2[nH]c3ccc(C4CN(C)C4)cc3c2C(C)C)cn2ncnc2c1C [Example 547]
8.29	5.09	8.40	Cc1c(-c2[nH]c3ccc(C4CN(CC(N)=O)C4)cc3c2C(C)C)cn2ncnc2c1C [Example 548]
8.03	5.66	8.22	Cc1c(-c2[nH]c3ccc(C4CN(CC(C)C)C4)cc3c2C(C)C)cn2cnnc2c1C [Example 549]
